Laboratory results from paper PMC6349922.

Test: RCM stapling (C=C formation) of two bridgehead alkenyl ether chains of 7-azabicyclo[2.2.1]heptane amide dimers; Grubbs I, 5-7 mol% (about 2.5-3 mol% for 36), added dropwise over 10-15 min, reflux under Ar
Conditions: CH2Cl2, 1.0 mM, 40.0 °C

CC(C)(C)OC(=O)N1[C@H]2CC[C@@]13COCCCCCC=CCCCCOCC14CCC(CC1)N4C(=O)[C@H]2C3 [4 -> 9 (C11)]
ring closure, isolated yield (from C=CCCCCCOC[C@@]12CC[C@@H]([C@@H](C(=O)N3C4CCC3(COCCCCC=C)CC4)C1)N2C(=O)OC(C)(C)C, 21-membered ring, 2.0 h): 87%

CC(C)(C)OC(=O)N1[C@H]2CC[C@@]13COCCCCCC=CCCCCCOCC14CCC(CC1)N4C(=O)[C@H]2C3 [5 -> 10 (C12)]
ring closure, isolated yield (from C=CCCCCCOCC12CCC(CC1)N2C(=O)[C@H]1C[C@@]2(COCCCCCC=C)CC[C@@H]1N2C(=O)OC(C)(C)C, 22-membered ring, 16.0 h): 64%

CC(C)(C)OC(=O)N1[C@H]2CC[C@@]13COCCCCC=CCCCCOCC14CCC(CC1)N4C(=O)[C@H]2C3 [3 -> 8 (C10)]
ring closure, isolated yield (from C=CCCCCOCC12CCC(CC1)N2C(=O)[C@H]1C[C@@]2(COCCCCC=C)CC[C@@H]1N2C(=O)OC(C)(C)C, 20-membered ring, 3.0 h): 94%

CC(C)(C)OC(=O)N1[C@H]2CC[C@@]13COCCCC=CCCCOCC14CCC(CC1)N4C(=O)[C@H]2C3 [1 -> 6 (C8)]
ring closure, isolated yield (from C=CCCCOCC12CCC(CC1)N2C(=O)[C@H]1C[C@@]2(COCCCC=C)CC[C@@H]1N2C(=O)OC(C)(C)C, 18-membered ring, 8.0 h): 73%

CC(C)(C)OC(=O)N1[C@H]2CC[C@@]13COCCCCC=CCCCOCC14CCC(CC1)N4C(=O)[C@H]2C3 [2 -> 7 (C9)]
ring closure, isolated yield (from C=CCCCCOC[C@@]12CC[C@@H]([C@@H](C(=O)N3C4CCC3(COCCCC=C)CC4)C1)N2C(=O)OC(C)(C)C, 19-membered ring, 4.0 h): 80%

Cc1ccc(S(=O)(=O)N2[C@H]3CC[C@@]24COCCCCC=CCCCCOCC25CCC(CC2)N5C(=O)[C@H]3C4)cc1 [36 -> Ts-8 (C10, N-Ts)]
ring closure, isolated yield (from C=CCCCCOCC12CCC(CC1)N2C(=O)[C@H]1C[C@@]2(COCCCCC=C)CC[C@@H]1N2S(=O)(=O)c1ccc(C)cc1, 20-membered ring, 1.0 h): 91%
